Patent US8741961B2 (Cutech S.r.l., priority 2007, dated 2014)

Key:
Assay type in all cases: cell-based
[1] = test system: Human anagen hair follicles; experiment: Growth (elongation) of isolated human hair follicles in organ culture; details: for Effect on hair growth compared to other MAOI (in words): comparative experiment, Table 4
Procedure: Human anagen hair follicles were isolated from scalp skin and transferred for cultivation in sterile 24-well plates using a modified Williams' Medium E. Cultivation took place for nine days, while the experimental treatment of the follicles started 24 hours after the beginning of cultivation.
Hair follicles taken from a single donor were selected for the experiments after 18 h of cultivation Only follicles showing a good vital stage and a growth of not less than 0.2 mm were considered suitable to be maintained in culture. 4 groups comprising 9 follicles were prepared, plated at the density of three hair follicles/plate. […] The growth of the hair follicles was studied by microphotography and subsequently determined by image analysis. All hair follicles were photographed every two days.

[2] = test system: Human anagen hair follicles; experiment: Number of proliferative (Ki-67) and apoptotic (Apoptag) cells in the dermopapilla of hair follicles; details: for Number of cells in apoptotic state ± standard error / Number of cells in proliferative state ± standard error: after three days of cultivation, % of total cells in dermopapilla
Procedure: After three days of cultivation, samples were taken in order to determine the relative number of cells being in the proliferative or apoptotic state. The cells in apoptotic state were determined using an Apoptag Fluorescein In-situ Apoptosis Detection Kit (Chemicon International cod. S7110), while those in the proliferative state were marked with the antibody Ki-67 (monoclonal mouse anti-human Ki-67, clone MIB1, Dako Cytomation cod. M7240). The total number of cells in the dermopapilla was analysed by marking their nuclei by means of DAPI (4′,6-diamidino-2-phenylindol dihydrochloride). The percentage of cells in the proliferative or apoptotic state compared to the total number of cells was determined again by image analysis.

[3] = test system: Human anagen hair follicles; experiment: Growth (elongation) of isolated human hair follicles in organ culture; details: Table 1
[4] = test system: Human anagen hair follicles; experiment: Histological analysis of hair follicles (anagen/catagen phase) after 9 days of cultivation; details: for Hair follicles in anagen phase / Hair follicles in catagen phase: after 9 days of cultivation
Text: Subsequently, the hair follicles were subjected to a histological analysis by colouring with haematossilin and eosin in order to verify the morphological state of the dermopapilla.

[5] = 0.01 mM, day 1 of cultivation, Table 4 comparative experiment
[6] = 0.01 mM, day 3 of cultivation, Table 4 comparative experiment
[7] = 0.01 mM, day 5 of cultivation, Table 4 comparative experiment
[8] = 0.01 mM, day 7 of cultivation, Table 4 comparative experiment
[9] = 0.01 mM, day 9 of cultivation, Table 4 comparative experiment
[10] = 0.1 mM, day 1 of cultivation, Table 4 comparative experiment
[11] = 0.1 mM, day 3 of cultivation, Table 4 comparative experiment
[12] = 0.1 mM, day 5 of cultivation, Table 4 comparative experiment
[13] = 0.1 mM, day 7 of cultivation, Table 4 comparative experiment
[14] = 0.1 mM, day 9 of cultivation, Table 4 comparative experiment

C#CCN(C)CCCOc1ccc(Cl)cc1Cl [Chlorgyline]
Growth of hair follicles - elongation ± standard error [1, 5]: 0 mm | Growth of hair follicles - elongation ± standard error [1, 6]: 0.35 ± 0.02 mm | Growth of hair follicles - elongation ± standard error [1, 7]: 0.49 ± 0.02 mm | Growth of hair follicles - elongation ± standard error [1, 8]: 0.61 ± 0.04 mm | Growth of hair follicles - elongation ± standard error [1, 9]: 0.72 ± 0.07 mm | Growth of hair follicles - elongation ± standard error [1, 10]: 0 mm | Growth of hair follicles - elongation ± standard error [1, 11]: 0.33 ± 0.02 mm | Growth of hair follicles - elongation ± standard error [1, 12]: 0.55 ± 0.04 mm | Growth of hair follicles - elongation ± standard error [1, 13]: 0.67 ± 0.05 mm | Growth of hair follicles - elongation ± standard error [1, 14]: 0.79 ± 0.09 mm | Effect on hair growth compared to other MAOI (in words) [1]: did not exert any effect on hair growth

C#CCN(C)[C@H](C)Cc1ccccc1 [R-Selegiline]
Growth of hair follicles - elongation ± standard error [1, 5]: 0 mm | Growth of hair follicles - elongation ± standard error [1, 6]: 0.35 ± 0.02 mm | Growth of hair follicles - elongation ± standard error [1, 7]: 0.52 ± 0.03 mm | Growth of hair follicles - elongation ± standard error [1, 8]: 0.62 ± 0.05 mm | Growth of hair follicles - elongation ± standard error [1, 9]: 0.80 ± 0.06 mm | Growth of hair follicles - elongation ± standard error [1, 10]: 0 mm | Growth of hair follicles - elongation ± standard error [1, 11]: 0.34 ± 0.02 mm | Growth of hair follicles - elongation ± standard error [1, 12]: 0.53 ± 0.04 mm | Growth of hair follicles - elongation ± standard error [1, 13]: 0.65 ± 0.06 mm | Growth of hair follicles - elongation ± standard error [1, 14]: 0.82 ± 0.12 mm

C#CCN(C)[C@@H](C)Cc1ccccc1 [S-Selegiline]
Growth of hair follicles - elongation ± standard error [1, 5]: 0 mm | Growth of hair follicles - elongation ± standard error [1, 6]: 0.33 ± 0.02 mm | Growth of hair follicles - elongation ± standard error [1, 7]: 0.49 ± 0.02 mm | Growth of hair follicles - elongation ± standard error [1, 8]: 0.69 ± 0.03 mm | Growth of hair follicles - elongation ± standard error [1, 9]: 0.84 ± 0.06 mm | Growth of hair follicles - elongation ± standard error [1, 10]: 0 mm | Growth of hair follicles - elongation ± standard error [1, 11]: 0.35 ± 0.01 mm | Growth of hair follicles - elongation ± standard error [1, 12]: 0.55 ± 0.02 mm | Growth of hair follicles - elongation ± standard error [1, 13]: 0.70 ± 0.03 mm | Growth of hair follicles - elongation ± standard error [1, 14]: 0.75 ± 0.06 mm

Pargyline
Number of cells in apoptotic state ± standard error ([2]; 0.01 mM): 0.93% ± 0.37 | Number of cells in proliferative state ± standard error ([2]; 0.01 mM): 1.67% ± 0.4 | Number of cells in apoptotic state ± standard error ([2]; 0.1 mM): 0.95% ± 0.08 | Number of cells in proliferative state ± standard error ([2]; 0.1 mM): 2.89% ± 0.99 | Effect on number of apoptotic cells (in words) ([2]; versus control): only a marginal effect in increasing the number of apoptotic cells | Effect on number of cells in proliferative state (in words) ([2]; versus control): significantly increases the number of cells in an active, proliferative state | Growth of hair follicles - elongation ± standard error ([1]; 0.01 mM, day 3 of cultivation, Table 1): 0.51 ± 0.03 mm | Growth of hair follicles - elongation ± standard error ([1]; 0.01 mM, day 5 of cultivation, Table 1): 0.80 ± 0.07 mm | Growth of hair follicles - elongation ± standard error ([1]; 0.01 mM, day 9 of cultivation, Table 1): 1.47 ± 0.15 mm | Growth of hair follicles - elongation ± standard error ([1]; 0.1 mM, day 1 of cultivation, Table 1): 0 mm | Growth of hair follicles - elongation ± standard error [1, 10]: 0 mm | Growth of hair follicles - elongation ± standard error ([1]; 0.1 mM, day 3 of cultivation, Table 1): 0.55 ± 0.04 mm | Growth of hair follicles - elongation ± standard error [1, 11]: 0.56 ± 0.02 mm | Growth of hair follicles - elongation ± standard error ([1]; 0.1 mM, day 5 of cultivation, Table 1): 0.91 ± 0.12 mm | Growth of hair follicles - elongation ± standard error [1, 12]: 0.78 ± 0.04 mm | Growth of hair follicles - elongation ± standard error ([1]; 0.1 mM, day 7 of cultivation, Table 1): 1.19 ± 0.17 mm | Growth of hair follicles - elongation ± standard error [1, 14]: 1.22 ± 0.08 mm | Growth of hair follicles - elongation ± standard error ([1]; 0.5 mM, day 3 of cultivation, Table 1): 0.55 ± 0.05 mm | Growth of hair follicles - elongation ± standard error ([1]; 0.5 mM, day 5 of cultivation, Table 1): 0.81 ± 0.11 mm | Growth of hair follicles - elongation ± standard error ([1]; 0.5 mM, day 9 of cultivation, Table 1): 1.17 ± 0.19 mm | Effect on growth of the hair follicles (in words) ([1]; 0.01 to 0.5 mM versus control, Table 1): significant increase in growth of the hair follicles | Effect on hair growth compared to other MAOI (in words) [1]: the only active species | Growth of hair follicles - elongation ± standard error ([3]; 0.01 mM, day 1 of cultivation): 0 mm | Growth of hair follicles - elongation ± standard error ([3]; 0.1 mM, day 9 of cultivation): 1.60 ± 0.19 mm | Growth of hair follicles - elongation ± standard error ([3]; 0.5 mM, day 1 of cultivation): 0 mm | Hair follicles in anagen phase ([4]; 0.01 mM): 78% | Hair follicles in catagen phase ([4]; 0.01 mM): 22% | Hair follicles in anagen phase ([4]; 0.1 mM): 67% | Hair follicles in catagen phase ([4]; 0.1 mM): 33% | Hair follicles in anagen phase ([4]; 0.5 mM): 56% | Hair follicles in catagen phase ([4]; 0.5 mM): 44% | Effect on decline in the catagen phase (in words) ([4]; 0.01 to 0.5 mM versus control): significantly delayed the decline in the catagen phase
